Values quoted from earlier work, collected in US6821523B2, “Topical administration of pharmacologically active bases in the treatment of warts” (Dermatrends, Inc., priority 2002, dated 2004).

Legend:
[1] = tested on: cutaneous warts; details: for efficacy in words: survey of clinical trials, local wart treatment

Molecule | pH of Aqueous Solution, alkalinity in words | efficacy in words [1] | also measured
O=P([O-])([O-])O.[K+].[K+] [Potassium phosphate, dibasic] | Aqueous solution is slightly alkaline | – | –
O=B[O-].[Na+] [Sodium metaborate] | Strongly alkaline | – | –
O=c1[nH]cc(F)c(=O)[nH]1 [5-fluorouracil] | – | weak at best | –
bleomycin | – | weak at best | –
O=C(O)c1ccccc1O [salicylic acid] | – | – | cure rates ([1]; simple topical treatments, vs 48% for placebos): about 75%
O.O.O.O.O.O.O.O.O.O.O.O.O=P([O-])([O-])[O-].[Na+].[Na+].[Na+] [Sodium phosphate, tribasic dodecahydrate] | – | – | pH of Aqueous Solution (concentration) (1.0% (1%)): 11.9 (1.0%)
